For one assay, the system named is influenza A virus. The conditions noted are these: cited from earlier work.
The next assay deals with R361A mutant NP (Influenza A virus, UniProt P15682, R361A).

Structures are written as SMILES.

Take `CCOC(=O)C1=C[C@@H](OC(CC)CC)[C@H](NC(C)=O)[C@@H](N)C1` [tamiflu]: the “emergence of resistant virus” value in the assay with influenza A virus was “generated after four passages”.

With `COc1ccc2cc([C@H](C)C(=O)O)ccc2c1` [Naproxen, naproxen], at R361A mutant NP, the “stabilization of R361A monomers” value is “No stabilization”.

Source of the values: publication PMC4548311 (Journal of Biomolecular Structure & Dynamics, 2014).
